The values that follow come from patent US20170304168A1, “PHENYL KETONE DERIVATIVES AS SELF-TANNING AGENTS” (MERCK PATENT GmbH, priority 2012, published 2017).

Each structure is given as a SMILES string.

The assay concerns B16V mouse melanoma cells. The experiment in a line: B16 V mouse melanoma cell test (melanin content). It counts as cell-based. As to conditions: for Melanin content in pg/B-16V cell: relative to negative control DMSO 0.1% = 100. As for the experimental part:
mouse melanoma cells (manufacturer: DSMZ; Article No.: ACC370) in RPMI medium (Invitrogen, Article No.: 31870), to which 10% of FBS (foetal bovine serum; Invitrogen, Article No.: 10499044), 2 mM L-glutamine (Invitrogen, Article No: 25030) and 1 mM sodium pyruvate (Invitrogen, Article No.: 11360) had additionally been added (=modified RPMI medium), are transferred into a culture flask and incubated at 37° C. and 5% CO2 for 72 h. The medium is separated off, and the cells are washed with 10 ml of D-PBS (Dulbecco's phosphate-buffered salines; Invitrogen, Article No.: 14190) and subsequently removed by suction. 1 ml of HyQtase cell detachment solution (Hyclone, Article No.: SV30030.01) is added to the cells. The bottle is swirled a number of times, and the HyQtase cell detachment solution is subsequently removed by suction. The cells are then incubated in the incubator at 37° C. and 5% CO2 for 5 min. The cells are taken up in the modified RPMI medium (see above), and the cell count is determined. To this end, the cells are stained with Trypan Blue and counted in a Neubauer chamber. The cells are subsequently sown out again in the modified RPMI medium (see above) in a defined cell count of 80,000 cells per well (6-well clear plate, TCT, PS (Nunc)). The cells are incubated at 37° C. and 5% CO2 for 24 h, the medium is then removed. The substance to be investigated (see table below) is subsequenly added in various concentrations. After the final incubation period, the medium is removed by suction, and the cells are washed with 1000 μl of D-PBS (Invitrogen, Article No.: 14190). The medium is again removed by suction. 250 μl of HyQtase cell detachment solution (Hyclone, Article No.: SV30030.01) are added to the cells. The 6-well plate is swirled a number of times, and the HyQtase cell detachment solution is subsequently removed by suction. The cells are then incubated in the incubator at 37° C. and 5% CO2 for 5 min. The cells are taken up in 1.5 ml of DPBS (Invitrogen, Article No.: 14190) and transferred into a cup (SARSTEDT, Ref. 72.692.005). The cell count is subsequently determined. To this end, the cells are stained with Trypan Blue and counted in a NeuBauer chamber. The cells are then centrifuged at 3500 g for 1 min. The pellets obtained are photographed, and the supernatant is subsequently removed by suction. The pellets are dissolved in 1 ml of 1N NaOH at 80° C. for 1 h and then cooled to RT. 200 μl per cup (as quadruple determination) are subsequently pipetted into a 96-well plate (VWR, Article No.: 4100636981), and the absorption at a wavelength of 405 nm is determined (Safire, Tecan). The content of melanin can be determined in this way by means of a calibration line. As comparison with the compounds of the formula I to be investigated, a sample with dimethyl sulfoxide (DMSO) (0.1%) as negative control and a sample with IBMX (200 μm) as positive control are each investigated in parallel. The following tables give the results of the determination of the melanin concentration obtained for the substance dilutions indicated. The results obtained are quoted relative to the negative control with dimethyl sulfoxide (DMSO), whose measurement value is set to 100%. IBMX serves as positive control.

Where [1] appears, read: Test 1, 300 μM (printed 300 µM).

As to `CC(C)Cn1c(=O)n(C)c(=O)c2[nH]cnc21` [IBMX, reference compound], the “Melanin content in pg/B-16V cell” value (Test 1, 200 μM (printed 200 µM)) is recorded as 726 pg/B-16V cell and the “Melanin content in pg/B-16V cell” value (Test 2, 200 μM (printed 200 µM)) is 338 pg/B-16V cell.

Turning to `CC(=O)c1ccccc1O` [Ia, 1-(2-Hydroxyphenyl)ethanone], the “Effect on melanogenesis (result in words)” value (“Effect on melanogenesis” for short) (Result of Test 1) is given as “promote melanogenesis”. Moreover, the “Melanin content in pg/B-16V cell” value was 191 pg/B-16V cell (Test 1, 50 μM); 429 pg/B-16V cell under setting [1]; 438 pg/B-16V cell (Test 1, 1 mM).

Take `COc1ccccc1C(C)=O` [Ib, 1-(2-Methoxyphenyl)ethanone]: the “Effect on melanogenesis” value (Result of Test 1) is “promote melanogenesis”. The “Melanin content in pg/B-16V cell” value (Test 1, 50 μM) worked out at 202 pg/B-16V cell; the “Melanin content in pg/B-16V cell” value under setting [1] amounted to 318 pg/B-16V cell; the “Melanin content in pg/B-16V cell” value (Test 1, 1 mM) was 611 pg/B-16V cell.

In the case of `CC(=O)c1c(O)cc(O)cc1O` [Ic], the “Effect on melanogenesis” value (Result of Test 1) was “promote melanogenesis”. In addition, the “Melanin content in pg/B-16V cell” value is on record as 129 pg/B-16V cell (Test 1, 50 μM); 144 pg/B-16V cell (Test 1, 100 μM); 184 pg/B-16V cell (Test 1, 500 μM).

For `COc1cccc(O)c1C(C)=O` [Id, 1-(2-Hydroxy-6-methoxyphenyl)ethanone], the “Effect on melanogenesis” value (Result of Test 2) is listed as “promote melanogenesis”. The “Melanin content in pg/B-16V cell” value runs as follows: (Test 2, 100 μM) 275 pg/B-16V cell; (Test 2, 500 μM) 432 pg/B-16V cell.

For `COc1ccc(C(C)=O)c(OC)c1` [Ie, 1-(2,4-Dimethoxyphenyl)-ethanone], where the note is “Result of Test 2”, the “Effect on melanogenesis” value is “promote melanogenesis”. Besides, the “Melanin content in pg/B-16V cell” value is, setting by setting: (Test 2, 100 μM) 104 pg/B-16V cell; (Test 2, 500 μM) 121 pg/B-16V cell.

On to `CC(=O)c1ccccc1N` [Ig], for which the “Effect on melanogenesis” value (Result of Test 2) is given as “promote melanogenesis”. Besides, the “Melanin content in pg/B-16V cell” value (Test 2, 100 μM) was 133 pg/B-16V cell and the “Melanin content in pg/B-16V cell” value (Test 2, 500 μM) was found to be 209 pg/B-16V cell.

For `COc1cc(OC)c(C(C)=O)c(OC)c1` [Ih], the “Effect on melanogenesis” value (Result of Test 2) was “promote melanogenesis”. The “Melanin content in pg/B-16V cell” value (Test 2, 100 μM) was 126 pg/B-16V cell and the “Melanin content in pg/B-16V cell” value (Test 2, 500 μM) was 164 pg/B-16V cell.
